System: AK
Test: AK activity of cell-free extracts, with and without L-lysine (method of Stadtman)
Assay type: biochemical, Methylophilus methylotrophus
Settings: L-lysine alone
Method: Cell-free extracts were prepared from the Methylophilus methylotrophus AS1 strain containing the RSFD80 plasmid (also referred to as “AS1/RSFD80” hereinafter) and the Methylophilus methylotrophus AS1 strain containing the pRS plasmid (also referred to as “AS1/pRS” hereinafter), and AK activity was measured. The cell-free extracts (crude enzyme solutions) were prepared as follows. The AS1/RSFD80 strain and AS1/pRS strain were each inoculated to 121 production medium of the above composition containing 20 mg/L of streptomycin, cultured at 37° C. for 34 hours with shaking, and then calcium carbonate was removed and cells were harvested.
The bacterial cells obtained as described above were washed with 0.2% KCl under a condition of 0° C., suspended in 20 mM potassium phosphate buffer (pH 7) containing 10 mM MgSO4, 0.8 M (NH4)2SO4 and 0.03 M β-mercaptoethanol, and disrupted by sonication (0° C., 200 W, 10 minutes). […]
The measurement of AK activity was performed in accordance with the method of Stadtman (Stadtman, E. R., Cohen, G. N., LeBras, G., and Robichon-Szulmajster, H., J. Biol. Chem., 236, 2033 (1961)). […] The reaction solution was centrifuged, and absorbance of the supernatant was measured at 540 nm. […] When the enzymatic activity was measured, L-lysine was added to the enzymatic reaction solution at various concentrations to examine degree of inhibition by L-lysine.

## NCCCC[C@H](N)C(=O)O [L-lysine]
  inhibition of AK originally retained by the AS1 strain: not inhibited

Reference: US7223572B1, “Methylophilus methylotrophus having enhanced dihydrodipicolinate synthase and/or aspartokinase activity for L-amino acid production” (Ajinomoto Co., Inc., priority 1999, dated 2007)
